In article PMC8609999, “A Phase I trial of talazoparib in patients with advanced hematologic malignancies” (International Journal of Hematologic Oncology, 2021):
“And” between values parts separate entries of the source, which are not always exact repeats. Equal values may be shown once. Marks after values point to notes of the source that are not given here.

Columns and labels:
[1] = Urine pharmacokinetics after multiple daily talazoparib dosing; type: in vivo, human
Procedure: Plasma and urine samples were assayed for talazoparib concentrations by Covance Laboratories Inc., using validated high performance liquid chromatography with tandem mass spectrometry detection methods. The lower limits of quantitation for […] and urine were 5.0 pg/ml and 25.0 pg/ml, respectively. Evaluated PK parameters included maximum concentration (Cmax), minimum concentration (Cmin), time to maximum plasma concentration (Tmax), area under the curve from time 0 to last measurable concentration (AUC0–t), area under the curve from time 0 to 24 h post-dose (AUC0–24), amount of drug excreted into the urine from time 0 to 24 h (Ae0–24), fraction of administered drug excreted in the urine from time 0 to 24 h (Fe0–24), and average renal clearance from time 0 to 24 h (ARC0–24); ARC0–24 was calculated as (Ae0–24/AUC0–24). PK parameters were calculated using Phoenix™ WinNonlin® 6.1.
Summary statistics for plasma and urine talazoparib concentrations and PK parameters were calculated by grouping subjects in cohorts 1 and 2 together to provide a larger sample size at each dose level.

[2] = system: patients with advanced hematologic malignancies (cohort 1: AML/MDS; cohort 2: CLL/MCL); assay: Dose-limiting toxicity / MTD, Phase I 3 + 3 dose-escalation of once-daily oral talazoparib (NCT01399840); type: in vivo; conditions: for Maximum tolerated dose (MTD): oral once daily, 21-day cycles
Procedure: This study was an open-label, two-cohort, Phase I, dose-escalation study of once-daily talazoparib monotherapy in patients with advanced hematologic malignancies (ClinicalTrials.gov Identifier: NCT01399840) conducted at seven sites in the US and the UK between July 2011 and November 2013. Enrollment and dose escalation were conducted independently in each cohort of the study. Talazoparib was administered orally, once a day for repeated 21-day cycles under fasting conditions. Each cohort consisted of two stages: dose escalation (stage 1) and dose expansion (stage 2). Dose escalation followed a standard 3 + 3 dose-escalation design, where the first patient in each group was observed from cycle 1 day 1 through cycle 1 day 8 before two to five additional patients were treated in that dose level. […] Planned talazoparib dose levels included 0.1, 0.2, 0.3, 0.45, 0.9, 1.35, and 2.0 mg/day.
The primary objective of the study was to establish the MTD of daily oral talazoparib in molecularly unselected patients with AML or MDS (cohort 1) and in patients with CLL or MCL (cohort 2). The MTD was defined as the highest dose level at which no more than one of six patients experienced a DLT. A DLT was defined as any of the following treatment-related toxicities occurring during cycle 1: in cohort 1, hematologic adverse events (AEs) included bone marrow hypoplasia (≤10% cellularity) lasting ≥28 days. Non-hematologic toxicities included any Grade ≥3 AE except for the following: (1) a non-hematologic Grade 3 laboratory AE that is asymptomatic and rapidly reversible (returned to baseline or to Grade ≤1 within 3 days) unless identified as clinically relevant by the investigator; (2) Grade 3 nausea, vomiting, and/or diarrhea responsive to medications within 24 h; (3) Grade 3 tumor lysis syndrome; (4) Grade 3 stomatitis that resolves within 7 days; or (5) Grade 3 fatigue unless ≥2 grade increase from baseline lasting >3 days. Missing ≥4 doses of talazoparib during cycle 1 for treatment-related non-hematologic toxicity was also defined as a DLT. In cohort 2, hematologic AEs included Grade 4 thrombocytopenia persisting for >7 days and/or resulting in Grade ≥2 hemorrhage, or Grade 4 neutropenia lasting >7 days and/or associated with fever (hematologic AEs for patients with bone marrow effacement [i.e., platelet count ≤50 × 10^9/L and neutrophil count <1 × 10^9/L] included >50% decrease in platelet count persisting for >7 days or resulting in Grade ≥2 hemorrhage, or >50% decrease in neutrophil count and/or associated with fever or systemic infection). For non-hematologic AEs, the same criteria used for cohort 1 were used to define DLT.
Patients experiencing a DLT during cycle 1 could resume talazoparib treatment at the same or reduced dose after recovery to baseline or Grade ≤1 within 21 days of treatment interruption. Patients not experiencing a DLT during cycle 1 could receive additional treatment until disease progression, treatment failure, or relapse. Patients with persisting non-hematologic Grade 1/2 toxicity were dose reduced ∼25%. Dosing was stopped for patients with a Grade 3/4 non-hematologic toxicity and resumed with a 25%–50% dose reduction if toxicity resolved to Grade 0/1 after >7 days, or returned to baseline. Patients with non-hematologic Grade 3 toxicity that resolved to Grade 0/1 in <7 days could resume with ∼25% reduction.
For determination of the MTD, only the treated evaluable patients were included. No formal sample size calculations based on statistical power were performed. Descriptive statistics were used to characterize all outcomes.

[3] = system: PARP; design: method as in PMID 28302823, PMID 24356813, PMID 32241924; conditions: in vitro; cited from earlier work
[4] = 1.35 mg/day, multiple daily dosing, urine, n = 2, geometric mean (geometric CV%)

Cn1ncnc1[C@H]1c2n[nH]c(=O)c3cc(F)cc(c23)N[C@@H]1c1ccc(F)cc1 [talazoparib]
Ae0–24 [1, 4]: 0.531 (29.8) mg
Fe0–24 (fraction of administered drug excreted in urine) [1, 4]: 0.393 (29.8)
Major clearance pathway ([1]; human, in vivo): urinary elimination is the major clearance pathway
Maximum tolerated dose (MTD) ([2]; Cohort 1 (AML/MDS)): < 2.0 mg/day and 1.35 mg/day
DLT AE: Neutropenic sepsis ([2]; Cohort 1, 0.10 mg/day (n = 3)): 0 (0.0) n (%)
DLT AE: Neutropenic sepsis ([2]; Cohort 1, 0.20 mg/day (n = 3)): 0 (0.0) n (%)
DLT AE: Neutropenic sepsis ([2]; Cohort 1, 0.30 mg/day (n = 5)): 0 (0.0) n (%)
DLT AE: Neutropenic sepsis ([2]; Cohort 1, 0.45 mg/day (n = 3)): 0 (0.0) n (%)
DLT AE: Neutropenic sepsis ([2]; Cohort 1, 0.90 mg/day (n = 4)): 0 (0.0) n (%)
DLT AE: Neutropenic sepsis ([2]; Cohort 1, 1.35 mg/day (n = 3)): 0 (0.0) n (%)
DLT AE: Neutropenic sepsis ([2]; Cohort 1, 2.00 mg/day (n = 4)): 1 (25.0)^† n (%)
DLT AE: Neutropenic sepsis ([2]; Cohort 1, All (n = 25)): 1 (4.0) n (%)
Maximum tolerated dose (MTD) ([2]; Cohort 2 (CLL/MCL)): < 0.9 mg/day and ~0.9 mg/day
DLT AE: Neutropenic sepsis ([2]; Cohort 2, 0.10 mg/day (n = 3)): 0 (0.0) n (%)
DLT AE: Neutropenic sepsis ([2]; Cohort 2, 0.90 mg/day (n = 5)): 0 (0.0) n (%)
DLT AE: Neutropenic sepsis ([2]; Cohort 2, All (n = 8)): 0 (0.0) n (%)
MTD in patients with hematologic malignancies (approximate range) ([2]; monotherapy, once daily, both cohorts): ~1 mg
PARP-trapping activity compared with other PARP inhibitors [3]: higher PARP-trapping activity
